Holding throughout (type): in vivo
Test [1] deals with sedge, umbrella (small-flower umbrella sedge, Cyperus difformis). Briefly: Test B flooded paddy test. The note with it: Cyperus difformis, Flood, 250 g ai/ha. A digest of the protocol: (§1)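 2-leaf plants; pots flooded 3 cm over soil; cpd added to paddy water; depth held; greenhouse 13–15 d; visual rating vs controls, 0 = no effect, 100 = complete control.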
Test [2] has as its system barnyardgrass (Echinochloa crus-galli). Put plainly: Test B flooded paddy test. As to conditions: Echinochloa crus-galli, Flood, 250 g ai/ha, read-out: Barnyardgrass plant response rating. A digest of the protocol: as §1
The next test concerns rice (Oryra sativa). Put plainly: Test B flooded paddy test. The note with it: Oryza sativa, Flood, 250 g ai/ha, read-out: Rice plant response rating. A digest of the protocol: as §1
Test [3] deals with ducksalad (Heteranthera limosa). Put plainly: Test B flooded paddy test. The note with it: Heteranthera limosa, Flood, 250 g ai/ha, read-out: Ducksalad plant response rating. Put shortly:
as §1

The test system of test [4] is giant foxtail (Setaria faberii). Briefly: Test A postemergence. The note with it: Setaria faberi, post-emergence, 240 h; for pest or weed control at 125 g/ha: 125 g ai/ha. A digest of the protocol:
(§2)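 Seeded soil received test chemicals as a preemergence directed spray, and seedlings at one to two leaves, 2–10 cm tall, received them postemergence, in a non-phytotoxic, surfactant-containing solvent mixture. Pots were held in a greenhouse for approximately 10 d, then rated for injury from 0, no effect, to 100, complete control.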

In test [5] the test system is wheat (Triticum aestivum). Briefly: Test A postemergence. As to conditions: Triticum aestivum, post-emergence, 240 h; for plant injury at 125 g/ha: 125 g ai/ha. Put shortly:
as §2

Test [6] has as its system Kochia (Kochia scoparia). Put plainly: Test A postemergence. As to conditions: Bassia scoparia, post-emergence, 240 h; for pest or weed control at 125 g/ha: 125 g ai/ha. Put shortly:
as §2

The subject of test [7] is Galium (catchweed bedstraw, Galium aparine). Put plainly: Test A postemergence. As to conditions: Galium, post-emergence, 240 h; for pest or weed control at 125 g/ha: 125 g ai/ha. Put shortly: as §2
Test [8] concerns pigweed (Amaranthus retroflexus). Briefly: Test A postemergence. As to conditions: Amaranthus retroflexus, post-emergence, 240 h; for pest or weed control at 125 g/ha: 125 g ai/ha. Put shortly:
as §2

In test [9] the test system is giant foxtail (Setaria faberii). Briefly: Test A preemergence. The note with it: Setaria faberi, pre-emergence, 240 h; for pest or weed control at 125 g/ha: 125 g ai/ha; for pest or weed control at 500 g/ha: 500 g ai/ha. A digest of the protocol: as §2
Test [10] relates to ragweed (common ragweed, Ambrosia elatior). Put plainly: Test A preemergence. The note with it: Ambrosia artemisiifolia, pre-emergence, 240 h; for pest or weed control at 125 g/ha: 125 g ai/ha; for pest or weed control at 500 g/ha: 500 g ai/ha. A digest of the protocol:
as §2

For test [11], the system named is barnyardgrass (Echinochloa crus-galli). Briefly: Test A preemergence. As to conditions: Echinochloa crus-galli, pre-emergence, 240 h; for pest or weed control at 125 g/ha: 125 g ai/ha; for pest or weed control at 500 g/ha: 500 g ai/ha. Put shortly: as §2
The test system of test [12] is Kochia (Kochia scoparia). Briefly: Test A preemergence. The note with it: Bassia scoparia, pre-emergence, 240 h; for pest or weed control at 125 g/ha: 125 g ai/ha; for pest or weed control at 500 g/ha: 500 g ai/ha. Put shortly:
as §2

Test [13] has as its system ryegrass, Italian (Italian ryegrass, Lolium multiflorum). Put plainly: Test A preemergence. The note with it: Lolium multiflorum, pre-emergence, 240 h, 125 g ai/ha, read-out: Plant response rating, Ryegrass, Italian. Put shortly:
as §2

The subject of test [14] is pigweed (Amaranthus retroflexus). Put plainly: Test A preemergence. The note with it: Amaranthus retroflexus, pre-emergence, 240 h; for pest or weed control at 125 g/ha: 125 g ai/ha; for pest or weed control at 500 g/ha: 500 g ai/ha.
Where [15] appears, read: scale of 0 to 100 where 0 is no effect and 100 is complete control.
[16] abbreviates: 0 to 100 scale where 0 is no effect and 100 is complete control.

Where two headings read alike, the source gives them in different places.

Consider `CCc1ccc([C@H]2CNC(=S)[C@@H]2C(=O)Nc2ccccc2SC)cc1` [Compound 763], for which the pest or weed control at 250 g/ha came out at 0% in test [1] (scale of 0 to 100 where 0 is no effect and 100 is complete control, read-out: Sedge, Umbrella plant response rating); 0% in test [2] (setting [15]); 0% in the test with rice (Oryra sativa) (setting [15]); 60% in [3] (setting [15]). In addition, the pest or weed control at 125 g/ha in test [4] (postemergence, visual injury after approximately 10 d, 0 to 100 scale (0 no effect, 100 complete control), read-out: Plant response rating, Foxtail, Giant) stood at 0%; in the test with Kochia (Kochia scoparia) [6] (postemergence, visual injury after approximately 10 d, 0 to 100 scale (0 no effect, 100 complete control), read-out: Plant response rating, Kochia) it was 0%; in test [7] (postemergence, visual injury after approximately 10 d, 0 to 100 scale (0 no effect, 100 complete control), read-out: Plant response rating, Galium), 0%; in test [8] (postemergence, visual injury after approximately 10 d, 0 to 100 scale (0 no effect, 100 complete control), read-out: Plant response rating, Pigweed), 0%; in [9] (preemergence, visual rating after approx. 10 d, 0 to 100 scale where 0 is no effect and 100 is complete control, read-out: Plant response rating, Foxtail, Giant), 0%; in test [10] (preemergence, visual rating after approx. 10 d, 0 to 100 scale where 0 is no effect and 100 is complete control, read-out: Plant response rating, Ragweed) it was 0%. Also, the pest or weed control at 125 g/ha is 80% in test [11] (preemergence, visual rating after approx. 10 d, 0 to 100 scale where 0 is no effect and 100 is complete control, read-out: Plant response rating, Barnyardgrass); 30% in the test with Kochia (Kochia scoparia) [12] (preemergence, visual rating after approx. 10 d, 0 to 100 scale where 0 is no effect and 100 is complete control, read-out: Plant response rating, Kochia); 0% in [13] (preemergence, visual rating after approx. 10 d, 0 to 100 scale where 0 is no effect and 100 is complete control); 0% in test [14] (preemergence, visual rating after approx. 10 d, 0 to 100 scale where 0 is no effect and 100 is complete control, read-out: Plant response rating, Pigweed). Moreover, the plant injury at 125 g/ha in test [5] (postemergence, visual injury after approximately 10 d, 0 to 100 scale (0 no effect, 100 complete control), read-out: Plant response rating, Wheat) worked out at 0%. For the same compound, the pest or weed control at 500 g/ha in [9] (preemergence, 0 to 100 scale, 0 = no effect, 100 = complete control, read-out: Plant response rating, Foxtail, Giant) was determined as 50%; in [10] (preemergence, 0 to 100 scale, 0 = no effect, 100 = complete control, read-out: Plant response rating, Ragweed), 0%; in [11] (preemergence, 0 to 100 scale, 0 = no effect, 100 = complete control, read-out: Plant response rating, Barnyardgrass), 80%; in the test with Kochia (Kochia scoparia) [12] (preemergence, 0 to 100 scale, 0 = no effect, 100 = complete control, read-out: Plant response rating, Kochia), 30%; in test [14] (preemergence, 0 to 100 scale, 0 = no effect, 100 = complete control, read-out: Plant response rating, Pigweed), 30%.
For the compound `CSc1ccccc1NC(=O)[C@H]1C(=O)N(C)C[C@@H]1c1ccc(F)c(C)c1` [Compound 1312], the pest or weed control at 250 g/ha in test [1] (360 h, visually evaluated after 13 to 15 d, read-out: Plant response rating, Sedge, Umbrella (0 to 100 scale where 0 is no effect and 100 is complete control)) was determined as 0%; in test [2] (setting [16]), 40%; in the test with rice (Oryra sativa) (setting [16]), 0%; in [3] (setting [16]) it was 100%. The pest or weed control at 125 g/ha in [4] (Postemergence, visual rating about 10 d after treatment, read-out: Foxtail, Giant plant response rating (0 to 100 scale)) amounted to 90%; in the test with Kochia (Kochia scoparia) [6] (Postemergence, visual rating about 10 d after treatment, read-out: Kochia plant response rating (0 to 100 scale)), 50%; in [7] (Postemergence, visual rating about 10 d after treatment, read-out: Galium plant response rating (0 to 100 scale)) it was 50%; in test [8] (Postemergence, visual rating about 10 d after treatment, read-out: Pigweed plant response rating (0 to 100 scale)), 0%; in [9] (Preemergence, 0 to 100 scale (0 no effect, 100 complete control), read-out: Plant response rating, Foxtail, Giant) it was 90%; in test [10] (Preemergence, 0 to 100 scale (0 no effect, 100 complete control), read-out: Plant response rating, Ragweed), 70%. Also, the pest or weed control at 125 g/ha is 90% in test [11] (Preemergence, 0 to 100 scale (0 no effect, 100 complete control), read-out: Plant response rating, Barnyardgrass); 50% with Kochia (Kochia scoparia) [12] (Preemergence, 0 to 100 scale (0 no effect, 100 complete control), read-out: Plant response rating, Kochia); 60% in [13] (Preemergence, 0 to 100 scale (0 no effect, 100 complete control)); 20% in [14] (Preemergence, 0 to 100 scale (0 no effect, 100 complete control), read-out: Plant response rating, Pigweed). Moreover, the pest or weed control at 500 g/ha in test [4] (Postemergence, 500 g ai/ha, visual injury, 0 to 100 scale (0 no effect, 100 complete control), approx. 10 d, read-out: Plant response rating, Foxtail, Giant) was 90%; in the test on Kochia (Kochia scoparia) [6] (Postemergence, 500 g ai/ha, visual injury, 0 to 100 scale (0 no effect, 100 complete control), approx. 10 d, read-out: Plant response rating, Kochia), 70%; in [7] (Postemergence, 500 g ai/ha, visual injury, 0 to 100 scale (0 no effect, 100 complete control), approx. 10 d, read-out: Plant response rating, Galium), 60%; in test [8] (Postemergence, 500 g ai/ha, visual injury, 0 to 100 scale (0 no effect, 100 complete control), approx. 10 d, read-out: Plant response rating, Pigweed) it was 40%; in [9] (preemergence, 0 to 100 scale where 0 is no effect and 100 is complete control, read-out: Foxtail, Giant plant response rating) it was 100%; in [10] (preemergence, 0 to 100 scale where 0 is no effect and 100 is complete control, read-out: Ragweed plant response rating), 100%. For the same compound, the pest or weed control at 500 g/ha in [11] (preemergence, 0 to 100 scale where 0 is no effect and 100 is complete control, read-out: Barnyardgrass plant response rating) was determined as 100%; in the test with Kochia (Kochia scoparia) [12] (preemergence, 0 to 100 scale where 0 is no effect and 100 is complete control, read-out: Kochia plant response rating) it was 80%; in test [14] (preemergence, 0 to 100 scale where 0 is no effect and 100 is complete control, read-out: Pigweed plant response rating), 60%. Besides, in [5] (Postemergence, visual rating about 10 d after treatment, read-out: Wheat plant response rating (0 to 100 scale)), the plant injury at 125 g/ha turned out to be 30%. In test [5] (Postemergence, 500 g ai/ha, visual injury, 0 to 100 scale (0 no effect, 100 complete control), approx. 10 d, read-out: Plant response rating, Wheat), the plant injury at 500 g/ha came to 80%.
